Test results reported in patent US12329745B2, “Methods and compositions for treating glucocorticoid excess” (Sparrow Pharmaceuticals, Inc., priority 2022, dated 2025).

Legend:
HSD-1 [1] = target: T1, HSD-1 (Homo sapiens, UniProt P28845); experiment: Target-mediated drug disposition (TMDD) population PK / PK-PD model
HSD-1 [2] = target: T1, HSD-1; experiment: Surface plasmon resonance binding kinetics in presence of NADPH (residence time); details: 300 μM NADPH; reciprocal of the dissociation rate constant; read-out: Residence Time (converted)
Excerpt: Pseudo-irreversible HSD-1 inhibitors can be identified via in vitro enzyme kinetics evaluation, in which they are expected to show longer enzyme residence times compared to other HSD-1 inhibitors. Surface plasmon resonance (SPR) is the resonant oscillation of conduction electrons at the interface between negative and positive permittivity material stimulated by incident light. When a protein is bound to a surface, SPR can be used to detect ligand binding to the protein. […] Association and dissociation of test compounds were monitored in the presence of 300 µM NADPH throughout the experiment.

T1 sequence (P28845 whole entry): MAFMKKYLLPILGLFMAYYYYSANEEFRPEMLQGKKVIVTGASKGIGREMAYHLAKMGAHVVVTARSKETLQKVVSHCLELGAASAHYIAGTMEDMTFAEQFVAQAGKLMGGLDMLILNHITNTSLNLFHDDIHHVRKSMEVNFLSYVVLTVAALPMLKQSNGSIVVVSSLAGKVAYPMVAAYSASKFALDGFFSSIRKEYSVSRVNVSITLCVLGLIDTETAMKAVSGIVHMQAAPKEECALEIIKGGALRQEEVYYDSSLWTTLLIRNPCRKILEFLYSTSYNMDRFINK

## Cn1c(-c2ccc(C(N)=O)cc2F)nnc1C(C)(C)Oc1c(F)cc(Cl)cc1F [SPI-62, 4-(5-(2-(4-chloro-2,6-difluorophenoxy)propan-2-yl)-4-methyl-4H-1,2,4-triazol-3-yl)-3-fluorobenzamide]
HSD-1 [1]
  IC50: 0.0234 nM
  Kd: 0.183 nM
HSD-1 [1]; both, human, in vivo
  estimated total target amount (RTOT+RTA) as SPI-62: 3.6 mg
HSD-1 [1]; in vivo
  Kd lower than the Ki: approximately 60 fold
  estimated Kd lower than Ki for purified human HSD-1: 29 fold
  estimated Kd lower than measured Ki for human HSD-1 expressed in CHO cells: 69 fold
HSD-1 [1]; model parameter estimate
  Hill coefficient: 1.42
  association rate constant (kon): 400000 M⁻¹ s⁻¹
  total target amount in the adipose compartment (RTA): 671 nM
HSD-1 [1]; read-out: dissociation rate constant (koff)
  koff: 7.33e-05 s⁻¹
HSD-1 [2]
  residence time: 8.92 min
